Test results published in ChEMBL document CHEMBL5375952, “Discovery of Novel 8-Hydroxyquinoline Derivatives with Potent In Vitro and In Vivo Antifungal Activity” (J Med Chem, 2023).
In brackets after ≈: the same amount, converted by molar mass.

Tests used:
Candida albicans [1] = assay: Antifungal activity against Candida albicans SC5314 assessed as fungal growth inhibition incubated for 48 hrs by broth microdilution method; format: functional
Candida albicans [2] = assay: Antifungal activity against Candida albicans 21 assessed as fungal growth inhibition incubated for 48 hrs by broth microdilution method; format: functional
Candida albicans [3] = assay: Antifungal activity against Candida albicans 22 assessed as fungal growth inhibition incubated for 48 hrs by broth microdilution method; format: functional
Nakaseomyces glabratus [4] = assay: Antifungal activity against Candida glabrata 201 assessed as fungal growth inhibition incubated for 48 hrs by broth microdilution method; format: functional
Nakaseomyces glabratus [5] = assay: Antifungal activity against Candida glabrata 202 assessed as fungal growth inhibition incubated for 48 hrs by broth microdilution method; format: functional
Nakaseomyces glabratus [6] = assay: Antifungal activity against Candida glabrata 205 assessed as fungal growth inhibition incubated for 48 hrs by broth microdilution method; format: functional
Pichia kudriavzevii [7] = assay: Antifungal activity against Candida krusei 68 assessed as fungal growth inhibition incubated for 48 hrs by broth microdilution method; format: functional
Pichia kudriavzevii [8] = assay: Antifungal activity against Candida krusei 69 assessed as fungal growth inhibition incubated for 48 hrs by broth microdilution method; format: functional
Pichia kudriavzevii [9] = assay: Antifungal activity against Candida krusei 477 assessed as fungal growth inhibition incubated for 48 hrs by broth microdilution method; format: functional
Candida parapsilosis [10] = assay: Antifungal activity against Candida parapsilosis 105 assessed as fungal growth inhibition incubated for 48 hrs by broth microdilution method; format: functional; details: Lodderomyces parapsilosis
Candida parapsilosis [11] = assay: Antifungal activity against Candida parapsilosis 107 assessed as fungal growth inhibition incubated for 48 hrs by broth microdilution method; format: functional; details: Lodderomyces parapsilosis
Candida parapsilosis [12] = assay: Antifungal activity against Candida parapsilosis 125 assessed as fungal growth inhibition incubated for 48 hrs by broth microdilution method; format: functional; details: Lodderomyces parapsilosis
Candida tropicalis [13] = assay: Antifungal activity against Candida tropicalis 176 assessed as fungal growth inhibition incubated for 48 hrs by broth microdilution method; format: functional
Candida tropicalis [14] = assay: Antifungal activity against Candida tropicalis 178 assessed as fungal growth inhibition incubated for 48 hrs by broth microdilution method; format: functional
Candida tropicalis [15] = assay: Antifungal activity against Candida tropicalis 184 assessed as fungal growth inhibition incubated for 48 hrs by broth microdilution method; format: functional
Cryptococcus neoformans [16] = assay: Antifungal activity against Cryptococcus neoformans 443 assessed as fungal growth inhibition incubated for 48 hrs by broth microdilution method; format: functional
Cryptococcus neoformans [17] = assay: Antifungal activity against Cryptococcus neoformans 444 assessed as fungal growth inhibition incubated for 48 hrs by broth microdilution method; format: functional
Cryptococcus neoformans [18] = assay: Antifungal activity against Cryptococcus neoformans 445 assessed as fungal growth inhibition incubated for 48 hrs by broth microdilution method; format: functional
Aspergillus fumigatus [19] = assay: Antifungal activity against Aspergillus fumigatus 023-12 assessed as fungal growth inhibition incubated for 48 hrs by broth microdilution method; format: functional
Aspergillus fumigatus [20] = assay: Antifungal activity against Aspergillus fumigatus A assessed as fungal growth inhibition incubated for 48 hrs by broth microdilution method; format: functional
Aspergillus fumigatus [21] = assay: Antifungal activity against Aspergillus fumigatus 7544 assessed as fungal growth inhibition incubated for 48 hrs by broth microdilution method; format: functional
[22] = Cytotoxicity against human Caco-2 cells assessed as cell growth inhibition incubated for 24 hrs by CCK8 assay; format: toxicity, cell-based

MIC (Candida albicans [1]) [µg/mL] | MIC (Candida albicans [2]) [µg/mL] | MIC (Candida albicans [3]) [µg/mL] | SMILES | also measured
1 (≈ 2.41 µM) | 2 (≈ 4.82 µM) | 4 (≈ 9.65 µM) | CSc1ccc(C(NC(=O)Cc2ccccc2)c2ccc3cccnc3c2O)cc1 (stereo not drawn) | 
2 (≈ 4.96 µM) | 0.25 (≈ 0.621 µM) | 1 (≈ 2.48 µM) | O=C(Cc1ccccc1)NC(c1ccc(Cl)cc1)c1ccc2cccnc2c1O (stereo not drawn) | 
0.5 (≈ 1.19 µM) | 0.5 (≈ 1.19 µM) | 1 (≈ 2.38 µM) | O=C(Cc1ccccc1)NC(c1ccc(F)c(Cl)c1)c1ccc2cccnc2c1O (stereo not drawn) | 
2 (≈ 4.41 µM) | 0.25 (≈ 0.551 µM) | 1 (≈ 2.2 µM) | CCN(CC)c1ccc(C(NC(=O)CCc2ccccc2)c2ccc3cccnc3c2O)cc1 (stereo not drawn) | 
2 (≈ 5.02 µM) | 0.5 (≈ 1.25 µM) | 1 (≈ 2.51 µM) | COc1ccc(C(NC(=O)Cc2ccccc2)c2ccc3cccnc3c2O)cc1 (stereo not drawn) | 
1 (≈ 2.82 µM) | 0.25 (≈ 0.705 µM) | 0.5 (≈ 1.41 µM) | CC(C)C(=O)NC(c1ccc(Cl)cc1)c1ccc2cccnc2c1O (stereo not drawn) | 
0.25 (≈ 0.608 µM) | 0.5 (≈ 1.22 µM) | 2 (≈ 4.86 µM) | CN(C)c1ccc(C(NC(=O)Cc2ccccc2)c2ccc3cccnc3c2O)cc1 (stereo not drawn) | 
2 (≈ 4.42 µM) | 1 (≈ 2.21 µM) | 2 (≈ 4.42 µM) | O=C(Cc1ccccc1)NC(c1ccc(OC(F)(F)F)cc1)c1ccc2cccnc2c1O (stereo not drawn) | 
0.25 (≈ 0.73 µM) | 0.5 (≈ 1.46 µM) | 0.125 (≈ 0.365 µM) | CC(=O)NC(c1ccc2ccccc2c1)c1ccc2cccnc2c1O (stereo not drawn) | 
1 (≈ 2.61 µM) | 0.25 (≈ 0.654 µM) | 1 (≈ 2.61 µM) | Cc1ccc(C(NC(=O)Cc2ccccc2)c2ccc3cccnc3c2O)cc1 (stereo not drawn) | 

The next lines start with the compound.

SMILES | MIC (Candida albicans [1]) [µg/mL] | MIC (Candida albicans [2]) [µg/mL] | MIC (Candida albicans [3]) [µg/mL] | also measured
COc1ccc(C(NC(=O)C(C)C)c2ccc3cccnc3c2O)cc1 (stereo not drawn) | 2 (≈ 5.71 µM) | 0.5 (≈ 1.43 µM) | 1 (≈ 2.85 µM) | 
CC(C)C(=O)NC(c1ccc(OC(F)F)cc1)c1ccc2cccnc2c1O (stereo not drawn) | 1 (≈ 2.59 µM) | 0.5 (≈ 1.29 µM) | 0.5 (≈ 1.29 µM) | 
Cc1ccc(C(NC(=O)C(C)C)c2ccc3cccnc3c2O)cc1 (stereo not drawn) | 2 (≈ 5.98 µM) | 1 (≈ 2.99 µM) | 1 (≈ 2.99 µM) | 
CCCC(=O)NC(c1ccc(N(C)C)cc1)c1ccc2cccnc2c1O (stereo not drawn) | 0.25 (≈ 0.688 µM) | 0.25 (≈ 0.688 µM) | 0.5 (≈ 1.38 µM) | 
CN1CCN(C(c2ccncc2)c2ccc3cccnc3c2O)CC1 (stereo not drawn) | 4 (≈ 12 µM) | 4 (≈ 12 µM) | 4 (≈ 12 µM) | 
CC(C)C(=O)NC(c1ccc(Cl)c(Cl)c1)c1ccc2cccnc2c1O (stereo not drawn) | 1 (≈ 2.57 µM) | 0.25 (≈ 0.642 µM) | 1 (≈ 2.57 µM) | 
COc1ccc(C(NC(=O)CC(C)C)c2ccc3cccnc3c2O)cc1OC (stereo not drawn) | 0.5 (≈ 1.27 µM) | 0.5 (≈ 1.27 µM) | 0.5 (≈ 1.27 µM) | 
COc1ccccc1C(NC(=O)C(C)C)c1cc(Cl)c2cccnc2c1O (stereo not drawn) | > 64 | 64 (≈ 166 µM) | > 64 | 
CC(C)C(=O)NC(c1cccc([N+](=O)[O-])c1)c1ccc2cccnc2c1O (stereo not drawn) | 0.25 (≈ 0.684 µM) | 0.25 (≈ 0.684 µM) | 0.5 (≈ 1.37 µM) | 
Cc1ccc(C(NC(=O)CC(C)C)c2ccc3cccnc3c2O)cc1 (stereo not drawn) | 0.125 (≈ 0.359 µM) | 0.125 (≈ 0.359 µM) | 0.125 (≈ 0.359 µM) | MIC (Nakaseomyces glabratus [4]): 0.125 µg/mL (≈ 0.359 µM); MIC (Nakaseomyces glabratus [5]): 0.125 µg/mL (≈ 0.359 µM); MIC (Nakaseomyces glabratus [6]): 0.125 µg/mL (≈ 0.359 µM); MIC (Pichia kudriavzevii [7]): 0.125 µg/mL (≈ 0.359 µM); MIC (Pichia kudriavzevii [8]): 0.125 µg/mL (≈ 0.359 µM); MIC (Pichia kudriavzevii [9]): 0.125 µg/mL (≈ 0.359 µM); MIC (Candida parapsilosis [10]): 0.032 µg/mL (≈ 0.0918 µM); MIC (Candida parapsilosis [11]): 0.125 µg/mL (≈ 0.359 µM); MIC (Candida parapsilosis [12]): 0.125 µg/mL (≈ 0.359 µM); MIC (Candida tropicalis [13]): 0.032 µg/mL (≈ 0.0918 µM); MIC (Candida tropicalis [14]): 0.032 µg/mL (≈ 0.0918 µM); MIC (Candida tropicalis [15]): 0.125 µg/mL (≈ 0.359 µM); MIC (Cryptococcus neoformans [16]): 0.016 µg/mL (≈ 0.0459 µM); MIC (Cryptococcus neoformans [17]): 0.016 µg/mL (≈ 0.0459 µM); MIC (Cryptococcus neoformans [18]): 0.016 µg/mL (≈ 0.0459 µM); MIC (Aspergillus fumigatus [19]): 0.25 µg/mL (≈ 0.717 µM); MIC (Aspergillus fumigatus [20]): 0.5 µg/mL (≈ 1.43 µM); MIC (Aspergillus fumigatus [21]): 0.5 µg/mL (≈ 1.43 µM); IC50 at 24 h [22]: 32 µg/mL (≈ 91.8 µM)
CC(C)C(=O)NC(c1ccc(Br)cc1)c1ccc2cccnc2c1O (stereo not drawn) | 2 (≈ 5.01 µM) | 0.5 (≈ 1.25 µM) | 1 (≈ 2.5 µM) | 
COc1ccc(C(NC(C)=O)c2ccc3cccnc3c2O)c(OC)c1 (stereo not drawn) | 4 (≈ 11.4 µM) | 4 (≈ 11.4 µM) | 4 (≈ 11.4 µM) | 
CC(C)C(=O)NC(c1ccc(S(C)(=O)=O)cc1)c1ccc2cccnc2c1O (stereo not drawn) | 2 (≈ 5.02 µM) | 2 (≈ 5.02 µM) | 1 (≈ 2.51 µM) | 
